Measurements as given in US11185499B2, “Multilayer thin film drug delivery device and methods of making and using the same” (The Regents of the University of California, priority 2011, dated 2021).

Experiments:
[1] = Release of FITC-BSA protein from nanostructured PCL devices; format: physicochemical; conditions: nanostructured PCL devices (n=3), pore size 20-40 nm
Excerpt: Multilayer thin film devices having pore sizes in the range of […]-40 nm were fabricated as described herein.

[2] = Payload calculations and safety consideration; conditions: device designed for delivery over 6 months, failure
Method: The loading requirements for a device are analyzed based upon a zero-order release profile that maintains concentration in the posterior of the eye for at least a 4 month period. For example, based on a 5 mm×5 mm thin-film with 20 nm pores, with a void space of 50% a maximal drug load in this device is 1.3 mg of lyophilized drug, with release rates as high 2 μg/day/mm^2 based on membrane experiments. Desired release rates depend on drug affinity, vitreous half-life, and target vitreous concentration. […] Complete dose dumping for a device designed for delivery over 6 months would produce systemic drug concentration of less than 3.4 ng/ml upon failure, which falls well below the 11-27 ng/ml threshold thought to inhibit VEGF by 50%. In addition, a multi-chambered reservoir (FIG. 10) minimizes the risk that the entire drug payload could be inadvertently dumped. Based upon conservative estimates of Lucentis© half-life in the vitreous humor, a device loaded with approximately 800 μg of drug is estimated to maintain therapeutic levels for a 6 month or longer period.

| Substance | release rate [1] [µg/day] | time period of release [1] [days] | systemic drug concentration upon complete dose dumping [2] |
| --- | --- | --- | --- |
| FITC-BSA: FITC-BSA protein released from nanostructured PCL devices | 1 | 210 | – |
| ranibizumab: anti-VEGF formulation (Lucentis, Genentech, Inc.) | – | – | less than 3.4 ng/ml |
